50 compounds from patent US10787435B2, “ASK1 inhibitor and preparation method and use thereof” (FUJIAN COSUNTER PHARMACEUTICAL CO., LTD., priority 2017, dated 2020) can be followed below.

The IC50 is the concentration that gives 50% inhibition.

A short description of series [1]: Studies on pharmacokinetic properties in mice (plasma concentration by LC-MS/MS). The settings on record: C57BL/6 male mice, dose not stated; for Exposure: intravenous or oral administration; for bioavailability: mouse, po, intragastric vs tail vein. The format is in vivo. How it is done:
Example 2: Studies on Pharmacokinetic Properties
C57BL/6 male mice were used as subject animals in the study. The concentration of the drug in the plasma of mice injected intravenously or administrated orally with the test compound was quantified at different time points by using a LC/MS/MS method to evaluate the pharmacokinetic characteristics of the test drug in mice.
A clear solution of the test compound was injected into C57BL/6 mice (overnight-fasted, 7-10 weeks old) via the tail vein, and the test compound was intragastrically administered to C57BL/6 mice (overnight-fasted, 7-10 weeks old). Approximately 30 μL of blood was collected from each animal via the jugular vein or tail vein at 0.0833, 0.25, 0.5, 1, 2, 4, 6, 8 and 24 hours after administration, and placed in an anticoagulant tube supplemented with EDTA-K2. Centrifuged at 3000 g at 4° C. for 15 min, and the plasma was collected. The plasma concentration was determined by LC-MS/MS. The pharmacokinetic parameters were calculated by using the non-compartment model and linear logarithmic trapezoidal method using the pharmacokinetic software WinNonlin™ Version 6.3 (Pharsight, Mountain View, Calif.).

A further series addresses ASK1/MAP3K5 (Homo sapiens (Human), UniProt Q99683). Kind of series: Evaluation of in vitro enzyme activity (33P-ATP radiometric kinase assay, MBP substrate). The format is biochemical. As to conditions: recombinant human full length GST-tagged ASK1 20 nM, MBP 20 μM. The method, then:
Example 1: Evaluation of In Vitro Enzyme Activity
Base Reaction Buffer: 20 mM Hepes (pH 7.5), 10 mM MgCl2, 1 mM EGTA, 0.02% Brij35, 0.02 mg/ml BSA, 0.1 mM Na3VO4, 2 mM DTT, 1% DMSO
The test compound was formulated into a 10 mM stock solution in DMSO, which was diluted into 10 concentrations in 3-fold degression, and placed in a 384-well plate (Cyclic Olefin Copolymer LDV Echo®).
Kinase Name: ASK1/MAP3K5 (Invitrogen, Carlsbad, Calif.)
Type: Recombinant Human Full Length Protein, GST-tagged
Final concentration of the enzyme: 20 nM
Substrate: Myelin basic protein, MBP (Active Motif, Carlsbad, Calif.)
Final concentration of the substrate: 20 μM
1. The substrate was dissolved in a freshly prepared base reaction buffer.
2. A desired coenzyme was added to the above substrate solution.
3. The kinase was added to the substrate solution and mixed slowly.
4. The solution of the test compound in DMSO was added to the kinase reaction solution and incubated at room temperature for 20 minutes.
5. ^33P-ATP (specific activity of 10 μCi/μl) was added to the reaction solution to initiate the reaction.
6. Incubated at room temperature for 2 hours.
7. A small portion of the reactants was placed onto a P-81 ion exchange filter paper.
8. The filter paper was washed three times with 0.75% […] to wash off the unbound phosphate, and then the filter paper was dried.
9. The radioactivity remaining on the filter paper was determined.
10. Kinase activity data was expressed as the ratio of the kinase activity remaining in the test sample to the kinase activity in the vehicle (DMSO).
11. IC50 values and curve fits was obtained with Prism (GraphPad software).

Chain of ASK1/MAP3K5 (Q99683 whole entry): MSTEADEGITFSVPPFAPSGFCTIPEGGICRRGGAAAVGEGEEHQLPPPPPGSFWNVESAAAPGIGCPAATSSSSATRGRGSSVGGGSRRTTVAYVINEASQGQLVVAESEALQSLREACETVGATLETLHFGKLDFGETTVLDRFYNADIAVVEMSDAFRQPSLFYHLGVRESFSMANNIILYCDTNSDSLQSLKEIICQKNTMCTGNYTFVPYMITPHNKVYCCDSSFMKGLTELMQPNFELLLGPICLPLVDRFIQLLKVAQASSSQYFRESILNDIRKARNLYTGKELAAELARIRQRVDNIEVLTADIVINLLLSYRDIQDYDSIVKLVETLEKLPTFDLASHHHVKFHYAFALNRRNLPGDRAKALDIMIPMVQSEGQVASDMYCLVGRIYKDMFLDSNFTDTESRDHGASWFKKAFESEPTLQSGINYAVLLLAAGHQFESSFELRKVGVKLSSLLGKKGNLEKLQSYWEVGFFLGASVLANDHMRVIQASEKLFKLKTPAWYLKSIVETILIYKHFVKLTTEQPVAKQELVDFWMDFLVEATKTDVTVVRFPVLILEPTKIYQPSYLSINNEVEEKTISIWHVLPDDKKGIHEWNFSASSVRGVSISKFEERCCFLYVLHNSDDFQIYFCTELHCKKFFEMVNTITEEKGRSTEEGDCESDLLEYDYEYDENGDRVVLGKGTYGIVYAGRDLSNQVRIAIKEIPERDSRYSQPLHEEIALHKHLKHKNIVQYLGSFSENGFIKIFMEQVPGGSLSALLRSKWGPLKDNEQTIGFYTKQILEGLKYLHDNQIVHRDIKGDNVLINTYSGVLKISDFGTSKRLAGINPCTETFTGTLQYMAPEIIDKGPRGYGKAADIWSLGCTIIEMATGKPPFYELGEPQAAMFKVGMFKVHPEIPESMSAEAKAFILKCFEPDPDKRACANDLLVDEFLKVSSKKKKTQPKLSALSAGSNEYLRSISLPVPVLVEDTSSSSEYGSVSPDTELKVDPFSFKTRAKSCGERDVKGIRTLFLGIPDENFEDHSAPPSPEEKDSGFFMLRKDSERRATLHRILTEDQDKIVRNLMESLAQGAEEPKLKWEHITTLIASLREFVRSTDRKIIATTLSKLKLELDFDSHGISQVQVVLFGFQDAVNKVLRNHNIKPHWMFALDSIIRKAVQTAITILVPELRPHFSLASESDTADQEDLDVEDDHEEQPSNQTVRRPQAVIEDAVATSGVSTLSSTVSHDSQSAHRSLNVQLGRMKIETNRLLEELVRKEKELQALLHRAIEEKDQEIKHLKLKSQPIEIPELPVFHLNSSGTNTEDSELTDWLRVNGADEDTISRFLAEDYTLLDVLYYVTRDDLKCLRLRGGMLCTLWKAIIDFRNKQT

Turning to `CC(C)n1cnnc1-c1cccc(N2CCc3ccc(-n4cnc(C5CC5)c4)cc3C2=O)n1` [Example 001], in series [1], the Exposure is 69.652 µM·h and the bioavailability amounted to 133%. The IC50 on ASK1/MAP3K5 is not above 50 nM.

For `Cc1cc2c(cc1-n1cnc(C3CC3)c1)C(=O)N(c1cccc(-c3nncn3C(C)C)n1)CC2` [Example 002], in series [1], the Exposure amounted to 29.277 µM·h and the bioavailability was determined as 92%. The IC50 on ASK1/MAP3K5 was not above 50 nM.

For the compound `CC(C)n1cnnc1-c1cccc(-n2cc(F)c3ccc(-n4cnc(C5CC5)c4)cc3c2=O)n1` [Example 003], in series [1], the Exposure worked out at 66.259 µM·h and the bioavailability was 214%. Besides, the IC50 on ASK1/MAP3K5 is not above 50 nM.

As for `CC(C)n1cnnc1-c1cccc(-n2ccc3ccc(-n4cnc(C5CC5)c4)cc3c2=O)n1` [Example 004], at ASK1/MAP3K5, the IC50 was not above 50 nM.

Regarding `CC(C)n1cnnc1-c1cccc(N2Cc3ccc(-n4cnc(C5CC5)c4)cc3C2=O)n1` [Example 005], on ASK1/MAP3K5, the IC50 was not above 50 nM.

For `Cc1cc2ccn(-c3cccc(-c4nncn4C(C)C)n3)c(=O)c2cc1-n1cnc(C2CC2)c1` [Example 006], on ASK1/MAP3K5, the IC50 is not above 50 nM.

As to `Cc1cc2c(F)cn(-c3cccc(-c4nncn4C(C)C)n3)c(=O)c2cc1-n1cnc(C2CC2)c1` [Example 007], in series [1], the Exposure was 29.007 µM·h and the bioavailability was 123%. Moreover, at ASK1/MAP3K5, the IC50 is not above 50 nM.

For the compound `Cc1cc2c(cc1-n1cnc(C3CC3)c1)C(=O)N(c1cccc(-c3nnc4n3CCC4)n1)CC2` [Example 008], in series [1], the Exposure is 103.95 µM·h and the bioavailability amounted to 98.5%. For the same compound, the IC50 at ASK1/MAP3K5 is not above 50 nM.

Turning to `Cc1cc2c(cc1-n1cnc(C3CC3)c1)C(=O)N(c1cccc(-c3nnc4n3CCCC4)n1)CC2` [Example 009], in series [1], the Exposure was determined as 89.099 µM·h and the bioavailability is 115%. In addition, the IC50 at ASK1/MAP3K5 was not above 50 nM.

Regarding `O=C1c2cc(-n3cnc4c3CCCC4)ccc2CCN1c1cccc(-c2nnc3n2CCCC3)n1` [Example 010], on ASK1/MAP3K5, the IC50 was 50 to 1000 nM.

`Cc1nc(C2CC2)cn1-c1ccc2c(c1)C(=O)N(c1cccc(-c3nnc4n3CCCC4)n1)CC2` [Example 012]: the IC50 at ASK1/MAP3K5 is more than 1000 nM.

`CC(C)n1cnnc1-c1cccc(-n2cnc3ccc(-n4cnc(C5CC5)c4)cc3c2=O)n1` [Example 013]: the IC50 at ASK1/MAP3K5 is not above 50 nM.

Turning to `Cc1cc2ncn(-c3cccc(-c4nnc5n4CCCC5)n3)c(=O)c2cc1-n1cnc(C2CC2)c1` [Example 014], the IC50 on ASK1/MAP3K5 fell in the range of 50 to 1000 nM.

Regarding `Cc1cc2ncn(-c3cccc(-c4nnc(C)n4C)n3)c(=O)c2cc1-n1cnc(C2CC2)c1` [Example 015], the IC50 on ASK1/MAP3K5 was more than 1000 nM.

Turning to `Cc1cc2ncn(-c3cccc(-c4nnc(C)n4C(C)C)n3)c(=O)c2cc1-n1cnc(C2CC2)c1` [Example 016], at ASK1/MAP3K5, the IC50 lay in the range of 50 to 1000 nM.

Turning to `Cc1cc2c(F)cn(-c3cccc(-c4nnc5n4CCCC5)n3)c(=O)c2cc1-n1cnc(C2CC2)c1` [Example 017], the IC50 at ASK1/MAP3K5 fell in the range of 50 to 1000 nM.

Consider `Cc1cc2ncn(-c3cccc(-c4nncn4CC(F)(F)F)n3)c(=O)c2cc1-n1cnc(C2CC2)c1` [Example 019], for which the IC50 at ASK1/MAP3K5 was not above 50 nM.

In the case of `Cc1nnc(-c2cccc(-n3cnc4cc(C)c(-n5cnc(C6CC6)c5)cc4c3=O)n2)o1` [Example 020], the IC50 at ASK1/MAP3K5 is more than 1000 nM.

For the compound `CC(C)n1cnnc1-c1cccc(-n2cnc3cc(Cl)c(-n4cnc(C5CC5)c4)cc3c2=O)n1` [Example 021], at ASK1/MAP3K5, the IC50 is not above 50 nM.

For `CCc1cc2ncn(-c3cccc(-c4nncn4C(C)C)n3)c(=O)c2cc1-n1cnc(C2CC2)c1` [Example 022], on ASK1/MAP3K5, the IC50 is not above 50 nM.

In the case of `CC(C)n1cnnc1-c1cccc(-n2cnc3cc(-c4ccccc4)c(-n4cnc(C5CC5)c4)cc3c2=O)n1` [Example 023], the IC50 on ASK1/MAP3K5 was not above 50 nM.

For `CC(C)n1cnnc1-c1cccc(-n2cnc3cc(-c4cccnc4)c(-n4cnc(C5CC5)c4)cc3c2=O)n1` [Example 024], the IC50 on ASK1/MAP3K5 was not above 50 nM.

On to `CC(C)n1cnnc1-c1cccc(-n2cnc3cc(-c4ccsc4)c(-n4cnc(C5CC5)c4)cc3c2=O)n1` [Example 025], for which, on ASK1/MAP3K5, the IC50 is not above 50 nM.

Turning to `Cc1cc2ncn(-c3cccc(-c4nnc5n4CCC5)n3)c(=O)c2cc1-n1cnc(C2CC2)c1` [Example 028], the IC50 on ASK1/MAP3K5 was 50 to 1000 nM.

In the case of `COc1nc2cc(C)c(-n3cnc(C4CC4)c3)cc2c(=O)n1-c1cccc(-c2nncn2C(C)C)n1` [Example 029], the IC50 on ASK1/MAP3K5 was more than 1000 nM.

Take `COc1cc2ncn(-c3cccc(-c4nncn4C(C)C)n3)c(=O)c2cc1-n1cnc(C2CC2)c1` [Example 031]: the concentration for half-maximal inhibition (IC50) on ASK1/MAP3K5 is not above 50 nM.

On to `Cc1ccc(-c2cc3ncn(-c4cccc(-c5nncn5C(C)C)n4)c(=O)c3cc2-n2cnc(C3CC3)c2)cn1` [Example 032], for which the IC50 at ASK1/MAP3K5 is not above 50 nM.

`CC(C)n1cnnc1-c1cccc(-n2cnc3cc(-c4ccc(N)nc4)c(-n4cnc(C5CC5)c4)cc3c2=O)n1` [Example 034]: the IC50 on ASK1/MAP3K5 was not above 50 nM.

Consider `COCCOc1cc2ncn(-c3cccc(-c4nncn4C(C)C)n3)c(=O)c2cc1-n1cnc(C2CC2)c1` [Example 035], for which the half-inhibitory concentration (IC50) at ASK1/MAP3K5 is not above 50 nM.

Regarding `CC(C)n1cnnc1-c1cccc(-n2cnc3cc(O)c(-n4cnc(C5CC5)c4)cc3c2=O)n1` [Example 037], the IC50 at ASK1/MAP3K5 was not above 50 nM.

For the compound `CC(C)n1cnnc1-c1cccc(-n2cnc3cc(OCC(N)=O)c(-n4cnc(C5CC5)c4)cc3c2=O)n1` [Example 038], on ASK1/MAP3K5, the IC50 is not above 50 nM.

As to `CNC(=O)COc1cc2ncn(-c3cccc(-c4nncn4C(C)C)n3)c(=O)c2cc1-n1cnc(C2CC2)c1` [Example 039], on ASK1/MAP3K5, the IC50 was not above 50 nM.

Consider `CC(C)n1cnnc1-c1cccc(-n2cnc3cc(OCCCS(C)(=O)=O)c(-n4cnc(C5CC5)c4)cc3c2=O)n1` [Example 040], for which the IC50 on ASK1/MAP3K5 is not above 50 nM.

As for `CC(C)n1cnnc1-c1cccc(-n2cnc3cc(OCCO)c(-n4cnc(C5CC5)c4)cc3c2=O)n1` [Example 041], the IC50 on ASK1/MAP3K5 is not above 50 nM.

For the compound `Cc1cc2ncn(-c3csc(-c4nncn4C(C)C)c3)c(=O)c2cc1-n1cnc(C2CC2)c1` [Example 042], the IC50 at ASK1/MAP3K5 was more than 1000 nM.

Take `Cc1cc2ncn(-c3cccc(-c4nncn4C(C)C)c3)c(=O)c2cc1-n1cnc(C2CC2)c1` [Example 043]: the IC50 on ASK1/MAP3K5 was more than 1000 nM.

With `Cc1cc2ncn(-c3cccc(-c4nncn4C4CCCC4)n3)c(=O)c2cc1-n1cnc(C2CC2)c1` [Example 044], the IC50 at ASK1/MAP3K5 is not above 50 nM.

Take `CCC(CC)n1cnnc1-c1cccc(-n2cnc3cc(C)c(-n4cnc(C5CC5)c4)cc3c2=O)n1` [Example 045]: at ASK1/MAP3K5, the IC50 is not above 50 nM.

`Cc1cc2ncn(-c3csc(-c4nncn4C(C)C)n3)c(=O)c2cc1-n1cnc(C2CC2)c1` [Example 046]: the IC50 on ASK1/MAP3K5 is not above 50 nM.

Consider `Cc1cc2ncn(-c3cccc(-c4nncn4C(C)(C)C)n3)c(=O)c2cc1-n1cnc(C2CC2)c1` [Example 047], for which the IC50 at ASK1/MAP3K5 was not above 50 nM.

With `Cc1cc2ncn(-c3cccc(-c4nncn4C4CCOCC4)n3)c(=O)c2cc1-n1cnc(C2CC2)c1` [Example 048], on ASK1/MAP3K5, the IC50 was in the range of 50 to 1000 nM.

Consider `Cc1cc2ncn(-c3cccc(-c4nncn4C4CCC(F)(F)CC4)n3)c(=O)c2cc1-n1cnc(C2CC2)c1` [Example 049], for which the IC50 on ASK1/MAP3K5 lay in the range of 50 to 1000 nM.

On to `Cc1cc2ncn(-c3cccc(-c4nncn4C(C)C)n3)c(=O)c2cc1-n1cnc(-c2ccccc2)c1` [Example 050], for which the IC50 on ASK1/MAP3K5 was not above 50 nM.

`Cc1cc2ncn(-c3cccc(-c4nncn4C4CCCCC4)n3)c(=O)c2cc1-n1cnc(C2CC2)c1` [Example 051]: on ASK1/MAP3K5, the IC50 is not above 50 nM.

`Cc1cc2ncn(-c3cccc(-c4nncn4C(C)C)n3)c(=O)c2cc1-c1ccc(C(C)C)nc1` [Example 052]: the IC50 on ASK1/MAP3K5 is not above 50 nM.

`CC(C)n1cnnc1-c1cccc(-n2cnc3cc(OCCCF)c(-n4cnc(C5CC5)c4)cc3c2=O)n1` [Example 054]: on ASK1/MAP3K5, the IC50 is not above 50 nM.

On to `CC(C)n1cnnc1-c1cccc(-n2cnc3cc(N(C)C)c(-n4cnc(C5CC5)c4)cc3c2=O)n1` [Example 055], for which the IC50 on ASK1/MAP3K5 is not above 50 nM.

For the compound `CC(C)n1cnnc1-c1cccc(-n2cnc3cc(N4CCOCC4)c(-n4cnc(C5CC5)c4)cc3c2=O)n1` [Example 056], the IC50 at ASK1/MAP3K5 is not above 50 nM.

For `Cc1cc2ncn(-c3cccc(-c4nncn4C(C)CO)n3)c(=O)c2cc1-n1cnc(C2CC2)c1` (centres unmarked) [Example 057], the IC50 at ASK1/MAP3K5 is not above 50 nM.

For the compound `CC(C)n1cnnc1-c1cccc(-n2cnc3cc(OCC4COC4)c(-n4cnc(C5CC5)c4)cc3c2=O)n1` [Example 058], the IC50 on ASK1/MAP3K5 is not above 50 nM.
